Experimental data reported in ChEMBL document CHEMBL5034037, “Synthesis, Characterization, and Preclinical Evaluation of a Small-Molecule Prostate-Specific Membrane Antigen-Targeted Monomethyl Auristatin E Conjugate” (J Med Chem, 2021).
pIC50: −log10 of the molar value. Active and inactive are the calls of the source. No cut-off for these calls is given here. *1 amine or outer side, *2 acyl side, *3 side chain or, on linkers, in order; H or OH if unused. Where a SMILES comes first, the peptide text is derived from it. [ ]: non-standard residue; d: D form. The star is where a group is joined. GluureaLys(ε-3-ClBenzyl) = O=C(O)CC[C@H](NC(=O)N[C@@H](CCCCN(Cc1cccc(Cl)c1)*)C(=O)O)C(=O)O; Dolaproine = CO[C@@H]([C@@H]1CCCN1)[C@@H](C)C(=O)O; Dil = CC[C@H](C)[C@H](NC)[C@@H](CC(=O)O)OC; X1 = O=C(CCCc1cn(CCCN[*:1])nn1)[*:2]; PABC = O=C(OCc1ccc(N[*:1])cc1)[*:2]; X2 = C[C@@H](N*)[C@@H](O)c1ccccc1; Cit = NC(=O)NCCC[C@H](N)C(=O)O; Suc = O=C(CCC(=O)[*:2])[*:1]; NMeV = CN[C@H](C(=O)O)C(C)C; Ahx = NCCCCCC(=O)O

What was measured:
[1] = Chronic toxicity in rat assessed as diarrhea at 10 microg/kg, iv; settings: in vivo, 0.01 mg/kg, dose 10 µg/kg
Cathepsin B = Cathepsin B (Homo sapiens, UniProt P07858); assay: Stability of compound at pH 3.6 assessed as recombinant cathepsin B (unknown origin) mediated hydrolysis half life by HPLC-MS analysis; format: ADME
[2] = Toxicity in rabbit assessed as local irritation in testes at 81 to 122 microg/kg, iv; design: species or system Oryctolagus cuniculus; settings: in vivo, dose 81-122 µg/kg
PC-3 = assay: Induction of intracellular reactive oxygen species production in human PC-3 cells incubated for 1 hr measured at CC50 concentration by amperometric method; format: functional, cell-based
CWR22R = assay: Induction morphological changes in human 22Rv1 cells assessed as decrease in cell membrane stiffness measured upto 1 hr; format: functional, cell-based; settings: time hrs <=1
[3] = Toxicity in rat assessed as morphological changes in kidney at 150 to 225 microg/kg, iv; format: tissue-based; settings: in vivo, dose 150-225 µg/kg
[4] = Toxicity in rat assessed as morphological changes in liver at 150 to 225 microg/kg, iv; format: tissue-based; settings: in vivo, dose 150-225 µg/kg
[5] = Chronic toxicity in rabbit assessed as decrease in the blood lymphocyte count at […], iv administered once every 3 weeks for 3 months; format: organism-based, Oryctolagus cuniculus; settings: in vivo, 504 h, dose lower 81 mg/kg
[6] = Toxicity in rat assessed as morphological changes in tongue at 150 to 225 microg/kg, iv; format: tissue-based; settings: in vivo, dose 150-225 µg/kg
[7] = Toxicity in rabbit assessed as morphological changes in abdominal cavity at 81 to 122 microg/kg, iv; design: species or system Oryctolagus cuniculus; settings: in vivo, dose 81-122 µg/kg
[8] = Toxicity in rabbit assessed as morphological changes in peritoneum at 81 to 122 microg/kg, iv; format: tissue-based, Oryctolagus cuniculus; settings: in vivo, dose 81-122 µg/kg
[9] = Toxicity in rat assessed as morphological changes in abdominal cavity at 150 to 225 microg/kg, iv; settings: in vivo, dose 150-225 µg/kg
[10] = Toxicity in rabbit assessed as morphological changes in loops of colon at 81 to 122 microg/kg, iv; format: tissue-based, Oryctolagus cuniculus; settings: in vivo, dose 81-122 µg/kg
[11] = Toxicity in rabbit assessed as morphological changes in duodenum at 81 to 122 microg/kg, iv; format: tissue-based, Oryctolagus cuniculus; settings: in vivo, dose 81-122 µg/kg
[12] = Toxicity in rat assessed as morphological changes in duodenum at 150 to 225 microg/kg, iv; format: tissue-based; settings: in vivo, dose 150-225 µg/kg
[13] = Toxicity in rabbit assessed as morphological changes in bronchi at 81 to 122 microg/kg, iv; design: species or system Oryctolagus cuniculus; settings: in vivo, dose 81-122 µg/kg
[14] = Toxicity in rabbit assessed as morphological changes in mucosa of thyroid gland at 81 to 122 microg/kg, iv; format: tissue-based, Oryctolagus cuniculus; settings: in vivo, dose 81-122 µg/kg
[15] = Toxicity in rabbit assessed as morphological changes in capsule of the kidney at 81 to 122 microg/kg, iv; format: tissue-based, Oryctolagus cuniculus; settings: in vivo, dose 81-122 µg/kg
[16] = Toxicity in rat assessed as morphological changes in brain gyrus at 150 to 225 microg/kg, iv; format: tissue-based; settings: in vivo, dose 150-225 µg/kg
[17] = Toxicity in rabbit assessed as morphological changes in cerebral membrane at 81 to 122 microg/kg, iv; design: species or system Oryctolagus cuniculus; settings: in vivo, dose 81-122 µg/kg
[18] = Toxicity in rabbit assessed as morphological changes in spleen pulp at 81 to 122 microg/kg, iv; format: tissue-based, Oryctolagus cuniculus; settings: in vivo, dose 81-122 µg/kg
[19] = Toxicity in rat assessed as morphological changes in spleen pulp at 150 to 225 microg/kg, iv; format: tissue-based; settings: in vivo, dose 150-225 µg/kg
[20] = Toxicity in rabbit assessed as morphological changes in aortic intima at 81 to 122 microg/kg, iv; design: species or system Oryctolagus cuniculus; settings: in vivo, dose 81-122 µg/kg
[21] = Toxicity in rat assessed as morphological changes in urinary bladder at 150 to 225 microg/kg, iv; settings: in vivo, dose 150-225 µg/kg
[22] = Toxicity in rabbit assessed as histological change in spermatagonia in seminiferous tubule in testes at 81 to 122 microg/kg, iv; design: species or system Oryctolagus cuniculus; settings: in vivo, dose 81-122 µg/kg
[23] = Antitumor activity against human PC-3 cells xenografted in mouse assessed as tumour growth inhibition at 0.3 mg/kg, ip daily treated for 5 days after 18 days of tumor implantation measured upto 15 days; format: functional; settings: PC-3, ip, 120 h, time 5 day, read-out: TGI
[24] = Elimination rate constant in Wistar rat at 1.5 mg/kg, iv; format: ADME, organism-based; settings: in vivo
[25] = Volume of distribution in rabbit at 0.81 mg/kg, iv; format: ADME, organism-based, Oryctolagus cuniculus; settings: in vivo
[26] = Ratio of AUC (t to infinity) to AUC (0 to infinity) in rat at 1.5 mg/kg, iv; format: ADME, organism-based; settings: in vivo
Cytochrome P450 2C8 = target: T1, Cytochrome P450 2C8 (Homo sapiens, UniProt P10632); assay: Inhibition of CYP2C8 in human liver microsome using paclitaxel as substrate; format: ADME, microsomes
T1 sequence (P10632 whole entry): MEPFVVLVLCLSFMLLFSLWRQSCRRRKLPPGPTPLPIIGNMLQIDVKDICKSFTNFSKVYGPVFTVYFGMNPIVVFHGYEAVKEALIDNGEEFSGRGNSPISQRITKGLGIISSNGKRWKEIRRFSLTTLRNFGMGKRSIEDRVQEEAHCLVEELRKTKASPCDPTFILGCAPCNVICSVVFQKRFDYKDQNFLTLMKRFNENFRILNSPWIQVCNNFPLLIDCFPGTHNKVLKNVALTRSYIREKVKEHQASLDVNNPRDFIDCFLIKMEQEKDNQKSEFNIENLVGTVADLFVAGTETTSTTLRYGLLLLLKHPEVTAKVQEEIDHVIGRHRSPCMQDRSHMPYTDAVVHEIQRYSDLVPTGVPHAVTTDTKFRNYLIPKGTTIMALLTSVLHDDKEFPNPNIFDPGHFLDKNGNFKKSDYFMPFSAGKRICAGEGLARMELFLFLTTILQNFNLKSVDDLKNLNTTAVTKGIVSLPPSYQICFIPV

Cytochrome P450 2D6 [27] = target: T2, Cytochrome P450 2D6 (Homo sapiens, UniProt P10635); assay: Inhibition of CYP2D6 in human liver microsome using dextromethorphan as substrate; format: ADME, microsomes
T2 sequence (P10635 whole entry): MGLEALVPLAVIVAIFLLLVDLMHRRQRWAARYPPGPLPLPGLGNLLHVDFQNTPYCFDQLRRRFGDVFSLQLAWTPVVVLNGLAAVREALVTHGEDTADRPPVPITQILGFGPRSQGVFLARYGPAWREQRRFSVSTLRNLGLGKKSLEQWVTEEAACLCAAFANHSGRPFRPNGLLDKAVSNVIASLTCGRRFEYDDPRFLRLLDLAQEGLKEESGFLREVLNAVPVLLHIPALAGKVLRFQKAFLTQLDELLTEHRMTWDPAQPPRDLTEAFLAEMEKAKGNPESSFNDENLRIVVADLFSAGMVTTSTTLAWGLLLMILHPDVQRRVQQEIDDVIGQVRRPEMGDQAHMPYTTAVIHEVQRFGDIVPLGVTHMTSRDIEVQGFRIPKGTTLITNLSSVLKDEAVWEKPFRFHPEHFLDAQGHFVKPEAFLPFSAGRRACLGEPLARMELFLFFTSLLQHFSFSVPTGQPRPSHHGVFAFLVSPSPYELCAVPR

[28] = Stability of the compound in mouse liver microsome assessed as half life; format: ADME; settings: liver microsomes
Cytochrome P450 2D6 [29] = target: T2, Cytochrome P450 2D6; assay: Drug metabolism assessed as human liver microsome CYP2D6-mediatd metabolism; format: ADME; settings: microsomes
Cytochrome P450 3A4 = Cytochrome P450 3A4 (Homo sapiens, UniProt P08684); assay: Drug metabolism assessed as human liver microsome CYP3A4-mediatd metabolism; format: ADME; settings: microsomes
Sequence of Cytochrome P450 3A4 (P08684 whole entry): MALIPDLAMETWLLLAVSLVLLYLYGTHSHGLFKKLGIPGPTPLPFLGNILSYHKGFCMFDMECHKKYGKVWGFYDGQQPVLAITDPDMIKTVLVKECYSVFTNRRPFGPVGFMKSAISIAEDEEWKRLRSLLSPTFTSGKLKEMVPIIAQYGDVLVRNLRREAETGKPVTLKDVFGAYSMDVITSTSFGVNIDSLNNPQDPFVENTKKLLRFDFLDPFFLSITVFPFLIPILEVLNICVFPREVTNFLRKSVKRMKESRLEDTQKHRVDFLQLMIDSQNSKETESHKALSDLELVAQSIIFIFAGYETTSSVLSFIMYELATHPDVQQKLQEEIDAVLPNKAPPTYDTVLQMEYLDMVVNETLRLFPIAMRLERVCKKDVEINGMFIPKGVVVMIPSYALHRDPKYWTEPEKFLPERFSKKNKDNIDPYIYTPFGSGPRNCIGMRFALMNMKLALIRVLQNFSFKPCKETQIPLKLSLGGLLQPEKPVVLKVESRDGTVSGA

Salmonella typhimurium [30] = assay: Mutagenecity in Salmonella typhimurium TA97 in presence of metabolic activation system at 1000 ug/ml by Ames test; format: toxicity, organism-based; settings: salmonella enterica subsp. enterica serovar typhimurium; dose 1000 µg/ml
Salmonella typhimurium [31] = assay: Mutagenecity in Salmonella typhimurium TA97 in presence of metabolic activation system at 10000 ug/ml by Ames test; format: toxicity, organism-based; settings: salmonella enterica subsp. enterica serovar typhimurium; dose 10000 µg/ml
Salmonella typhimurium [32] = assay: Mutagenecity in Salmonella typhimurium TA98 without metabolic activation system at 100 ug/ml by Ames test; format: toxicity, organism-based; settings: salmonella enterica subsp. enterica serovar typhimurium; dose 100 µg/ml
Salmonella typhimurium [33] = assay: Mutagenecity in Salmonella typhimurium TA100 without metabolic activation system at 1 ug/ml by Ames test; format: toxicity, organism-based; settings: salmonella enterica subsp. enterica serovar typhimurium; dose 1 µg/ml
Salmonella typhimurium [34] = assay: Mutagenecity in Salmonella typhimurium TA98 without metabolic activation system at 1 ug/ml by Ames test; format: toxicity, organism-based; settings: salmonella enterica subsp. enterica serovar typhimurium; dose 1 µg/ml
Salmonella typhimurium [35] = assay: Mutagenecity in Salmonella typhimurium TA97 without metabolic activation system at 1 ug/ml by Ames test; format: toxicity, organism-based; settings: salmonella enterica subsp. enterica serovar typhimurium; dose 1 µg/ml

CC[C@H](C)[C@@H]([C@@H](CC(=O)N1CCC[C@H]1[C@H](OC)[C@@H](C)C(=O)N[C@H](C)[C@@H](O)c1ccccc1)OC)N(C)C(=O)[C@@H](NC(=O)[C@H](C(C)C)N(C)C(=O)OCc1ccc(NC(=O)[C@H](CCCNC(N)=O)NC(=O)[C@@H](NC(=O)CCCc2cn(CCCNC(=O)[C@H](Cc3ccc(O)cc3)NC(=O)[C@H](Cc3ccccc3)NC(=O)CCC(=O)NCCCCCC(=O)N(CCCC[C@H](NC(=O)N[C@@H](CCC(=O)O)C(=O)O)C(=O)O)Cc3cccc(Cl)c3)nn2)C(C)C)cc1)C(C)C ({GluureaLys(ε-3-ClBenzyl)-Ahx-Suc}-FY[X1]V[Cit][PABC][NMeV]V[Dil][Dolaproine]-X2)
Activity [1]: Toxic
half-life (Cathepsin B): 25 min
Activity [2]: Non-Toxic
Activity (PC-3): Active
Activity (CWR22R): Active
Activity [3]: Non-Toxic
Activity [4]: Non-Toxic
Activity [5]: Toxic
Activity [6]: Non-Toxic
Activity [7]: Non-Toxic
Activity [8]: Non-Toxic
Activity [9]: Non-Toxic
Activity [10]: Non-Toxic
Activity [11]: Non-Toxic
Activity [12]: Non-Toxic
Activity [13]: Non-Toxic
Activity [14]: Non-Toxic
Activity [15]: Non-Toxic
Activity [16]: Non-Toxic
Activity [17]: Non-Toxic
Activity [18]: Non-Toxic
Activity [19]: Non-Toxic
Activity [20]: Non-Toxic
Activity [21]: Non-Toxic
Activity [22]: Toxic
inhibition in vivo at 0.3 mg/kg [23]: 37.7%
k el [24]: 4.17e-05 s⁻¹
Vd [25]: 0.158 L/kg
Ratio [26]: 14%
pIC50 (Cytochrome P450 2C8): < 4.60
pIC50 (Cytochrome P450 2D6 [27]): < 4.60
half-life [28]: 27.4 min
Drug metabolism (Cytochrome P450 2D6 [29]): Metabolite_Notdetected
Drug metabolism (Cytochrome P450 3A4): Metabolite_Notdetected
Activity (Salmonella typhimurium [30]): Non-Toxic
Activity (Salmonella typhimurium [31]): Non-Toxic
Activity (Salmonella typhimurium [32]): Non-Toxic
Activity (Salmonella typhimurium [33]): Non-Toxic
Activity (Salmonella typhimurium [34]): Non-Toxic
Activity (Salmonella typhimurium [35]): Non-Toxic
